From ChEMBL document CHEMBL1201861, “Genomics of Drug Sensitity in Cancer screening data, Wellcome Trust Sanger Institute”

Key:
COR-L23 = assay: cells; assay type: functional, cell-based; conditions: Homo sapiens;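 further: cell viability assay measuring how strongly compounds suppress growth of COR-L23 cells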
Description: SANGER: Inhibition of human COR-L23 cell growth in a cell viability assay.

CP50-MEL-B = assay: cells; assay type: functional, cell-based; conditions: Homo sapiens;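 further: growth inhibition of the human cell line, measured with a cell viability read-out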
Description: SANGER: Inhibition of human CP50-MEL-B cell growth in a cell viability assay.

ChaGo-K-1 = assay: cells; assay type: functional, cell-based; conditions: Homo sapiens;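 further: growth inhibition of ChaGo-K-1 cells, read out with a cell viability assay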
Description: SANGER: Inhibition of human ChaGo-K-1 cell growth in a cell viability assay.

DMS-273 = assay: cells; assay type: functional, cell-based; conditions: Homo sapiens
Description: SANGER: Inhibition of human DMS-273 cell growth in a cell viability assay.

EB-3 = assay: cells; assay type: functional, cell-based; conditions: Homo sapiens;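 further: human EB-3 cells, growth inhibition read out via a cell viability assay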
Description: SANGER: Inhibition of human EB-3 cell growth in a cell viability assay.

EHEB = assay: cells; assay type: functional, cell-based; conditions: Homo sapiens;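 further: growth inhibition of human EHEB cells, read out with a cell viability assay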
Description: SANGER: Inhibition of human EHEB cell growth in a cell viability assay.

G-401 = assay: cells; assay type: functional, cell-based; conditions: Homo sapiens
Description: SANGER: Inhibition of human G-401 cell growth in a cell viability assay.

H4 = assay: cells; assay type: functional, cell-based; conditions: Homo sapiens
Description: SANGER: Inhibition of human H4 cell growth in a cell viability assay.

HCC1569 = assay: cells; assay type: functional, cell-based; conditions: Homo sapiens;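 further: growth inhibition of human HCC1569 cells, read out with a cell viability assay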
Description: SANGER: Inhibition of human HCC1569 cell growth in a cell viability assay.

HCC1599 = assay: cells; assay type: functional, cell-based; conditions: Homo sapiens;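 further: growth inhibition of HCC1599 cells, read out in a cell viability assay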
Description: SANGER: Inhibition of human HCC1599 cell growth in a cell viability assay.

HCC1806 = assay: cells; assay type: functional, cell-based; conditions: Homo sapiens;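 further: growth inhibition of the cancer cell line, determined with a cell viability assay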
Description: SANGER: Inhibition of human HCC1806 cell growth in a cell viability assay.

HCT-15 = assay: cells; assay type: functional, cell-based; conditions: Homo sapiens;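 further: cell viability readout, IC50 reflecting suppression of HCT-15 cell growth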
Description: SANGER: Inhibition of human HCT-15 cell growth in a cell viability assay.

HEC-1 = assay: cells; assay type: functional, cell-based; conditions: Homo sapiens;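 further: growth inhibition of the cell line, read out with a cell viability assay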
Description: SANGER: Inhibition of human HEC-1 cell growth in a cell viability assay.

HSC-3 = assay: cells; assay type: functional, cell-based; conditions: Homo sapiens
Description: SANGER: Inhibition of human HSC-3 cell growth in a cell viability assay.

HSC-4 = assay: cells; assay type: functional, cell-based; conditions: Homo sapiens;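 further: growth inhibition of human HSC-4 cells, read out with a cell viability assay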
Description: SANGER: Inhibition of human HSC-4 cell growth in a cell viability assay.

KYSE-270 = assay: cells; assay type: functional, cell-based; conditions: Homo sapiens;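 further: cell growth inhibition measured with a viability assay in the human KYSE-270 line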
Description: SANGER: Inhibition of human KYSE-270 cell growth in a cell viability assay.

KYSE-520 cell line = assay: cells; assay type: functional, cell-based; conditions: Homo sapiens;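 further: growth inhibition of human KYSE-520 cells, read out with a viability assay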
Description: SANGER: Inhibition of human KYSE-520 cell growth in a cell viability assay.

L-540 = assay: cells; assay type: functional, cell-based; conditions: Homo sapiens;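 further: growth inhibition of the human L-540 cell line, read out with a viability assay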
Description: SANGER: Inhibition of human L-540 cell growth in a cell viability assay.

LC4-1 = assay: cells; assay type: functional, cell-based; conditions: Homo sapiens;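 further: growth inhibition of LC4-1 cells, read out with a cell viability assay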
Description: SANGER: Inhibition of human LC4-1 cell growth in a cell viability assay.

MDA-MB-175-VII = assay: cells; assay type: functional, cell-based; conditions: Homo sapiens
MDA-MB-453 = assay: cells; assay type: functional, cell-based; conditions: Homo sapiens
Description: SANGER: Inhibition of human MDA-MB-453 cell growth in a cell viability assay.

MKN-7 = assay: cells; assay type: functional, cell-based; conditions: Homo sapiens;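 further: growth inhibition of MKN-7 cells, read out with a cell viability assay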
Description: SANGER: Inhibition of human MKN7 cell growth in a cell viability assay.

NB12 = assay: cells; assay type: functional, cell-based; conditions: Homo sapiens;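 further: growth inhibition of human NB12 cells, read out by a cell viability assay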
Description: SANGER: Inhibition of human NB12 cell growth in a cell viability assay.

NCI-H1417 = assay: cells; assay type: functional, cell-based; conditions: Homo sapiens;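 further: human NCI-H1417 cells, growth inhibition determined with a cell viability readout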
Description: SANGER: Inhibition of human NCI-H1417 cell growth in a cell viability assay.

NCI-H1522 = assay: cells; assay type: functional, cell-based; conditions: Homo sapiens;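 further: growth inhibition of NCI-H1522 cells, read out with a cell viability assay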
Description: SANGER: Inhibition of human NCI-H1522 cell growth in a cell viability assay.

NCI-H1573 = assay: cells; assay type: functional, cell-based; conditions: Homo sapiens;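 further: growth inhibition of NCI-H1573 cells, read out with a cell viability assay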
Description: SANGER: Inhibition of human NCI-H1573 cell growth in a cell viability assay.

NCI-H1623 = assay: cells; assay type: functional, cell-based; conditions: Homo sapiens;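 further: cell viability assay used as the read-out for growth inhibition of NCI-H1623 cells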
Description: SANGER: Inhibition of human NCI-H1623 cell growth in a cell viability assay.

NCI-H2030 = assay: cells; assay type: functional, cell-based; conditions: Homo sapiens;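 further: growth inhibition of human NCI-H2030 cells, read out by a cell viability assay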
Description: SANGER: Inhibition of human NCI-H2030 cell growth in a cell viability assay.

NCI-H322M = assay: cells; assay type: functional, cell-based; conditions: Homo sapiens;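 further: cell viability assay measuring inhibition of growth of human NCI-H322M cells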
Description: SANGER: Inhibition of human NCI-H322M cell growth in a cell viability assay.

NCI-H520 = assay: cells; assay type: functional, cell-based; conditions: Homo sapiens;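 further: growth inhibition of NCI-H520 cells, measured by a cell viability assay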
Description: SANGER: Inhibition of human NCI-H520 cell growth in a cell viability assay.

NCI-H524 = assay: cells; assay type: functional, cell-based; conditions: Homo sapiens;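 further: growth inhibition of human NCI-H524 cells, read out through a cell viability assay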
Description: SANGER: Inhibition of human NCI-H524 cell growth in a cell viability assay.

NCI-H650 = assay: cells; assay type: functional, cell-based; conditions: Homo sapiens;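 further: growth inhibition of NCI-H650 cells, read out by a viability assay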
Description: SANGER: Inhibition of human NCI-H650 cell growth in a cell viability assay.

NCI-H716 = assay: cells; assay type: functional, cell-based; conditions: Homo sapiens;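 further: growth inhibition of human NCI-H716 cells, measured by a cell viability assay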
Description: SANGER: Inhibition of human NCI-H716 cell growth in a cell viability assay.

OAW-42 = assay: cells; assay type: functional, cell-based; conditions: Homo sapiens;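 further: growth inhibition of OAW-42 cells, read out with a cell viability assay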
Description: SANGER: Inhibition of human OAW-42 cell growth in a cell viability assay.

OPM-2 = assay: cells; assay type: functional, cell-based; conditions: Homo sapiens;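 further: growth of OPM-2 cells measured with a viability assay, IC50 for suppression of proliferation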
Description: SANGER: Inhibition of human OPM-2 cell growth in a cell viability assay.

PF-382 = assay: cells; assay type: functional, cell-based; conditions: Homo sapiens
Description: SANGER: Inhibition of human PF-382 cell growth in a cell viability assay.

PFSK-1 = assay: cells; assay type: functional, cell-based; conditions: Homo sapiens;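 further: cell viability assay measuring how strongly compounds suppress growth of human PFSK-1 cells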
Description: SANGER: Inhibition of human PFSK-1 cell growth in a cell viability assay.

RERF-LC-MS = assay: cells; assay type: functional, cell-based; conditions: Homo sapiens;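 further: growth inhibition of human RERF-LC-MS cells, read out by a cell viability assay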
Description: SANGER: Inhibition of human RERF-LC-MS cell growth in a cell viability assay.

Raji = assay: cells; assay type: functional, cell-based; conditions: Homo sapiens;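 further: cell viability assay measuring inhibition of Raji cell growth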
Description: SANGER: Inhibition of human Raji cell growth in a cell viability assay.

S-117 = assay: cells; assay type: functional, cell-based; conditions: Homo sapiens
Description: SANGER: Inhibition of human S-117 cell growth in a cell viability assay.

SBC-5 = assay: cells; assay type: functional, cell-based; conditions: Homo sapiens;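 further: cell viability assay read-out, IC50 is the concentration that inhibits growth of the cells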
Description: SANGER: Inhibition of human SBC-5 cell growth in a cell viability assay.

SCC-25 = assay: cells; assay type: functional, cell-based; conditions: Homo sapiens;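 further: growth inhibition of SCC-25 cells, measured with a cell viability assay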
Description: SANGER: Inhibition of human SCC-25 cell growth in a cell viability assay.

SCC-3 = assay: cells; assay type: functional, cell-based; conditions: Homo sapiens;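 further: cell viability assay measuring inhibition of SCC-3 cell growth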
Description: SANGER: Inhibition of human SCC-3 cell growth in a cell viability assay.

SK-HEP1 = assay: cells; assay type: functional, cell-based, SK-HEP-1; conditions: Homo sapiens;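 further: cell viability readout used to quantify reduction in proliferation of human SK-HEP-1 cells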
Description: SANGER: Inhibition of human SK-HEP-1 cell growth in a cell viability assay.

SK-MEL3 = assay: cells; assay type: functional, cell-based, SK-MEL-3; conditions: Homo sapiens;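 further: growth inhibition of human SK-MEL-3 cells, read out with a cell viability assay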
Description: SANGER: Inhibition of human SK-MEL-3 cell growth in a cell viability assay.

ST486 = assay: SANGER: Inhibition of human ST486 cell growth in a cell viability assay.; assay type: functional, cell-based
SW1088 = assay: cells; assay type: functional, cell-based; conditions: Homo sapiens;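 further: growth inhibition of human SW1088 cells, read out by a cell viability assay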
Description: SANGER: Inhibition of human SW1088 cell growth in a cell viability assay.

SW1710 = assay: cells; assay type: functional, cell-based; conditions: Homo sapiens;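 further: growth inhibition of SW1710 cells, determined with a cell viability assay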
Description: SANGER: Inhibition of human SW1710 cell growth in a cell viability assay.

SW1990 = assay: cells; assay type: functional, cell-based; conditions: Homo sapiens
Description: SANGER: Inhibition of human SW1990 cell growth in a cell viability assay.

647-V = assay: cells; assay type: functional, cell-based; conditions: Homo sapiens;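 further: growth inhibition of 647-V cells, read out with a cell viability assay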
Description: SANGER: Inhibition of human 647-V cell growth in a cell viability assay.

8305C = assay: cells; assay type: functional, cell-based; conditions: Homo sapiens
Description: SANGER: Inhibition of human 8305C cell growth in a cell viability assay.

A2058 = assay: cells; assay type: functional, cell-based; conditions: Homo sapiens;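 further: reduction of A2058 cell growth, read out with a viability assay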
Description: SANGER: Inhibition of human A2058 cell growth in a cell viability assay.

A253 cell line = assay: cells; assay type: functional, cell-based; conditions: Homo sapiens;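 further: growth inhibition of A253 cells, read out with a cell viability assay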
Description: SANGER: Inhibition of human A253 cell growth in a cell viability assay.

BHT-101 = assay: cells; assay type: functional, cell-based; conditions: Homo sapiens
Description: SANGER: Inhibition of human BHT-101 cell growth in a cell viability assay.

BL-70 = assay: SANGER: Inhibition of human BL-70 cell growth in a cell viability assay.; assay type: functional, cell-based
C32 = assay: cells; assay type: functional, cell-based; conditions: Homo sapiens;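 further: cell viability assay, with IC50 reflecting inhibition of C32 cell growth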
Description: SANGER: Inhibition of human C32 cell growth in a cell viability assay.

CAL-148 = assay: cells; assay type: functional, cell-based; conditions: Homo sapiens
Description: SANGER: Inhibition of human CAL-148 cell growth in a cell viability assay.

TE-441-T = assay: cells; assay type: functional, cell-based; conditions: Homo sapiens
Description: SANGER: Inhibition of human TE-441-T cell growth in a cell viability assay.

U2OS = assay: cells; assay type: functional, cell-based, U-2-OS; conditions: Homo sapiens;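 further: growth inhibition of human U-2-OS cells, determined with a cell viability assay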
Description: SANGER: Inhibition of human U-2-OS cell growth in a cell viability assay.

UMUC3 = assay: cells; assay type: functional, cell-based; conditions: Homo sapiens;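 further: growth inhibition of human UM-UC-3 cells, read out with a cell viability assay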
Description: SANGER: Inhibition of human UM-UC-3 cell growth in a cell viability assay.

UMC-11 = assay: cells; assay type: functional, cell-based; conditions: Homo sapiens;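 further: growth inhibition of UMC-11 cells, read out with a cell viability assay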
Description: SANGER: Inhibition of human UMC-11 cell growth in a cell viability assay.

YAPC = assay: cells; assay type: functional, cell-based; conditions: Homo sapiens;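 further: growth inhibition of YAPC cells, measured with a cell viability assay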
Description: SANGER: Inhibition of human YAPC cell growth in a cell viability assay.

YT = assay: cells; assay type: functional, cell-based; conditions: Homo sapiens
Description: SANGER: Inhibition of human YT cell growth in a cell viability assay.

CESS = assay: SANGER: Inhibition of human CESS cell growth in a cell viability assay.; assay type: functional, cell-based
CHP-212 = assay: cells; assay type: functional, cell-based; conditions: Homo sapiens
Description: SANGER: Inhibition of human CHP-212 cell growth in a cell viability assay.

Structure (SMILES): N#C/C(=C1/Nc2ccccc2S1)c1ccnc(NCCc2cccnc2)n1
- IC50 (COR-L23): > 8 µM
- IC50 (CP50-MEL-B): > 8 µM
- IC50 (ChaGo-K-1): 4.59 µM
- IC50 (DMS-273): 1.49 µM
- IC50 (EB-3): > 8 µM
- IC50 (EHEB): > 8 µM
- IC50 (G-401): 2.82 µM
- IC50 (H4): > 8 µM
- IC50 (HCC1569): 1.96 µM
- IC50 (HCC1599): > 8 µM
- IC50 (HCC1806): 1.53 µM
- IC50 (HCT-15): > 8 µM
- IC50 (HEC-1): > 8 µM
- IC50 (HSC-3): > 8 µM
- IC50 (HSC-4): > 8 µM
- IC50 (KYSE-270): 5.97 µM
- IC50 (KYSE-520 cell line): > 8 µM
- IC50 (L-540): > 8 µM
- IC50 (LC4-1): 7.65 µM
- IC50 (MDA-MB-175-VII): > 8 µM
- IC50 (MDA-MB-453): > 8 µM
- IC50 (MKN-7): > 8 µM
- IC50 (NB12): > 8 µM
- IC50 (NCI-H1417): > 8 µM
- IC50 (NCI-H1522): > 8 µM
- IC50 (NCI-H1573): > 8 µM
- IC50 (NCI-H1623): > 8 µM
- IC50 (NCI-H2030): > 8 µM
- IC50 (NCI-H322M): > 8 µM
- IC50 (NCI-H520): > 8 µM
- IC50 (NCI-H524): > 8 µM
- IC50 (NCI-H650): > 8 µM
- IC50 (NCI-H716): > 8 µM
- IC50 (OAW-42): 7.7 µM
- IC50 (OPM-2): > 8 µM
- IC50 (PF-382): > 8 µM
- IC50 (PFSK-1): > 8 µM
- IC50 (RERF-LC-MS): > 8 µM
- IC50 (Raji): > 8 µM
- IC50 (S-117): 6.94 µM
- IC50 (SBC-5): 6.89 µM
- IC50 (SCC-25): 5.31 µM
- IC50 (SCC-3): > 8 µM
- IC50 (SK-HEP1): 4.86 µM
- IC50 (SK-MEL3): > 8 µM
- IC50 (ST486): 1.74 µM
- IC50 (SW1088): > 8 µM
- IC50 (SW1710): 1.59 µM
- IC50 (SW1990): > 8 µM
- IC50 (647-V): > 8 µM
- IC50 (8305C): > 8 µM
- IC50 (A2058): > 8 µM
- IC50 (A253 cell line): > 8 µM
- IC50 (BHT-101): > 8 µM
- IC50 (BL-70): 4.85 µM
- IC50 (C32): > 8 µM
- IC50 (CAL-148): > 8 µM
- IC50 (TE-441-T): > 8 µM
- IC50 (U2OS): > 8 µM
- IC50 (UMUC3): > 8 µM
- IC50 (UMC-11): > 8 µM
- IC50 (YAPC): > 8 µM
- IC50 (YT): > 8 µM
- IC50 (CESS): > 8 µM
- IC50 (CHP-212): > 8 µM

Structure (SMILES): C/C(O)=C(\C#N)C(=O)Nc1cc(Br)ccc1Br
- IC50 (COR-L23): > 16 µM
- IC50 (CP50-MEL-B): > 16 µM
- IC50 (ChaGo-K-1): > 16 µM
- IC50 (DMS-273): > 16 µM
- IC50 (EB-3): > 16 µM
- IC50 (EHEB): > 16 µM
- IC50 (G-401): > 16 µM
- IC50 (H4): > 16 µM
- IC50 (HCC1569): > 16 µM
- IC50 (HCC1599): > 16 µM
- IC50 (HCC1806): > 16 µM
- IC50 (HCT-15): > 16 µM
- IC50 (HEC-1): > 16 µM
- IC50 (HSC-3): > 16 µM
- IC50 (HSC-4): > 16 µM
- IC50 (KYSE-270): > 16 µM
- IC50 (KYSE-520 cell line): > 16 µM
- IC50 (L-540): > 16 µM
- IC50 (LC4-1): > 16 µM
- IC50 (MDA-MB-175-VII): > 16 µM
- IC50 (MDA-MB-453): > 16 µM
- IC50 (MKN-7): > 16 µM
- IC50 (NB12): > 16 µM
- IC50 (NCI-H1417): > 16 µM
- IC50 (NCI-H1522): > 16 µM
- IC50 (NCI-H1573): > 16 µM
- IC50 (NCI-H1623): > 16 µM
- IC50 (NCI-H2030): > 16 µM
- IC50 (NCI-H322M): > 16 µM
- IC50 (NCI-H520): > 16 µM
- IC50 (NCI-H524): > 16 µM
- IC50 (NCI-H650): > 16 µM
- IC50 (NCI-H716): > 16 µM
- IC50 (OAW-42): > 16 µM
- IC50 (OPM-2): > 16 µM
- IC50 (PF-382): > 16 µM
- IC50 (PFSK-1): > 16 µM
- IC50 (RERF-LC-MS): > 16 µM
- IC50 (Raji): > 16 µM
- IC50 (S-117): > 16 µM
- IC50 (SBC-5): > 16 µM
- IC50 (SCC-25): > 16 µM
- IC50 (SCC-3): > 16 µM
- IC50 (SK-HEP1): > 16 µM
- IC50 (SK-MEL3): > 16 µM
- IC50 (ST486): > 16 µM
- IC50 (SW1088): > 16 µM
- IC50 (SW1710): > 16 µM
- IC50 (SW1990): > 16 µM
- IC50 (647-V): > 16 µM
- IC50 (8305C): > 16 µM
- IC50 (A2058): > 16 µM
- IC50 (A253 cell line): > 16 µM
- IC50 (BHT-101): > 16 µM
- IC50 (BL-70): > 16 µM
- IC50 (C32): > 16 µM
- IC50 (CAL-148): > 16 µM
- IC50 (TE-441-T): > 16 µM
- IC50 (U2OS): > 16 µM
- IC50 (UMUC3): > 16 µM
- IC50 (UMC-11): > 16 µM
- IC50 (YAPC): > 16 µM
- IC50 (YT): > 16 µM
- IC50 (CESS): > 16 µM
- IC50 (CHP-212): > 16 µM
